# In ChEMBL document CHEMBL1201862, “PubChem BioAssay data set” (2004):
#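 48-hour exposure; five concentrations; linearly interpolated endpoints. GI50 = concentration required for 50% inhibition of growth.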 The source made the active and inactive calls. Rule as the data show it: active = GI50 up to about 1.1 µM and inactive = higher.
# What was measured:
# Experiment in all cases: inhibition of tumour cell growth, NCI panel, 48 h
# HOP-92 = system: HOP-92
# MOLT-4 = system: MOLT-4
# A549 = system: A549
# M14 = system: M14
# Malme-3M = system: Malme-3M
# UO-31 = system: UO-31
# A498 = system: A498
# SK-MEL-28 = system: SK-MEL-28
# NCI-H460 = system: NCI-H460
# SW-620 = system: SW-620
# HCT-15 = system: HCT-15
# U-251 = system: U-251
# ACHN = system: ACHN
# SN12C = system: SN12C
# HCT-116 = system: HCT-116
# SR = system: SR
SMILES,GI50 (HOP-92),GI50 (MOLT-4),GI50 (A549),GI50 (M14),GI50 (Malme-3M),GI50 (UO-31),GI50 (A498),GI50 (SK-MEL-28),GI50 (NCI-H460),GI50 (SW-620),GI50 (HCT-15),GI50 (U-251),GI50 (ACHN),GI50 (SN12C),GI50 (HCT-116),GI50 (SR)
CN(C)CCNC(=O)C1COc2cc(-c3cc(=O)c4ccccc4o3)ccc2O1 (stereo not drawn),> 100 µM (inactive),15.7 µM (inactive),16.9 µM (inactive),18.1 µM (inactive),21.7 µM (inactive),74.3 µM (inactive),19 µM (inactive),19.5 µM (inactive),38.2 µM (inactive),18.2 µM (inactive),27.7 µM,20.1 µM (inactive),16.9 µM (inactive),22.4 µM (inactive),15.1 µM (inactive),15.6 µM (inactive)
Cn1c(C2CC(C)(C)c3c2c2ccccc2n3C)cc2ccccc21 (stereo not drawn),40.9 µM (inactive),> 304 µM (inactive),> 304 µM (inactive),–,> 304 µM (inactive),–,–,> 304 µM (inactive),> 304 µM (inactive),> 304 µM (inactive),> 304 µM,> 304 µM (inactive),> 304 µM (inactive),> 304 µM (inactive),30.1 µM (inactive),> 304 µM (inactive)
Cc1ccc(C)c2c1CCc1cc3ccccc3nc1-2,–,> 100 µM (inactive),> 100 µM (inactive),> 100 µM (inactive),> 100 µM (inactive),> 100 µM (inactive),> 100 µM (inactive),> 100 µM (inactive),> 100 µM (inactive),> 100 µM (inactive),> 100 µM,> 100 µM (inactive),> 100 µM (inactive),> 100 µM (inactive),> 100 µM (inactive),–
C[N+](C)(C)Cc1c(CC#N)[nH]c2ccccc12,–,24.5 µM (inactive),> 100 µM (inactive),84.7 µM (inactive),> 100 µM (inactive),76.7 µM (inactive),> 100 µM (inactive),> 100 µM (inactive),> 100 µM (inactive),> 100 µM (inactive),> 100 µM,> 100 µM (inactive),> 100 µM (inactive),> 100 µM (inactive),> 100 µM (inactive),44.6 µM (inactive)
COc1ccc(/C(Cl)=C(\C=N/O)c2ccc(OC)c(OC)c2)cc1OC,63.4 µM (inactive),> 100 µM (inactive),> 100 µM (inactive),51.3 µM (inactive),> 100 µM (inactive),> 100 µM (inactive),> 100 µM (inactive),> 100 µM (inactive),> 100 µM (inactive),> 100 µM (inactive),82 µM,> 100 µM (inactive),> 100 µM (inactive),> 100 µM (inactive),> 100 µM (inactive),> 100 µM (inactive)
COc1ccc(C2=NC(C)(C)CO2)cc1,> 100 µM (inactive),–,> 100 µM (inactive),–,> 100 µM (inactive),–,> 100 µM (inactive),> 100 µM (inactive),> 100 µM (inactive),> 100 µM (inactive),> 100 µM,> 100 µM (inactive),> 100 µM (inactive),> 100 µM (inactive),> 100 µM (inactive),> 100 µM (inactive)
O=Cc1cn(S(=O)(=O)c2ccccc2)c2ccccc12,–,16.3 µM (inactive),> 100 µM (inactive),31.3 µM (inactive),34.5 µM (inactive),18.7 µM (inactive),> 100 µM (inactive),32.4 µM (inactive),> 100 µM (inactive),35.5 µM (inactive),35.2 µM,27.6 µM (inactive),> 100 µM (inactive),42.4 µM (inactive),20 µM (inactive),20.1 µM (inactive)
CC1CC2CC(=O)CC3(C1)C2CCCN3CCCO (stereo not drawn),> 100 µM (inactive),> 100 µM (inactive),> 100 µM (inactive),> 100 µM (inactive),> 100 µM (inactive),> 100 µM (inactive),> 100 µM (inactive),> 100 µM (inactive),> 100 µM (inactive),> 100 µM (inactive),–,> 100 µM (inactive),> 100 µM (inactive),> 100 µM (inactive),> 100 µM (inactive),> 100 µM (inactive)
Nc1nc(SCCNC(=O)CCc2ccc(O)cc2)nc2c1ncn2C1OC(CO)C(O)C1O (stereo not drawn),> 203 µM (inactive),> 203 µM (inactive),> 203 µM (inactive),> 203 µM (inactive),> 203 µM (inactive),> 203 µM (inactive),> 203 µM (inactive),> 203 µM (inactive),> 203 µM (inactive),> 203 µM (inactive),> 203 µM,> 203 µM (inactive),> 203 µM (inactive),> 203 µM (inactive),> 203 µM (inactive),> 203 µM (inactive)
